Data reported in ChEMBL document CHEMBL4477252, “Optimization of microtubule affinity regulating kinase (MARK) inhibitors with improved physical properties” (Bioorg Med Chem Lett, 2016).

Assays:
[1] = biological target: T1, Calcium/calmodulin-dependent protein kinase type IV (Homo sapiens, UniProt Q16566); assay: Inhibition of full-length recombinant human GST-tagged CAMK4 expressed in Escherichia coli by Z'-LYTE assay
T1 sequence (Q16566 whole entry): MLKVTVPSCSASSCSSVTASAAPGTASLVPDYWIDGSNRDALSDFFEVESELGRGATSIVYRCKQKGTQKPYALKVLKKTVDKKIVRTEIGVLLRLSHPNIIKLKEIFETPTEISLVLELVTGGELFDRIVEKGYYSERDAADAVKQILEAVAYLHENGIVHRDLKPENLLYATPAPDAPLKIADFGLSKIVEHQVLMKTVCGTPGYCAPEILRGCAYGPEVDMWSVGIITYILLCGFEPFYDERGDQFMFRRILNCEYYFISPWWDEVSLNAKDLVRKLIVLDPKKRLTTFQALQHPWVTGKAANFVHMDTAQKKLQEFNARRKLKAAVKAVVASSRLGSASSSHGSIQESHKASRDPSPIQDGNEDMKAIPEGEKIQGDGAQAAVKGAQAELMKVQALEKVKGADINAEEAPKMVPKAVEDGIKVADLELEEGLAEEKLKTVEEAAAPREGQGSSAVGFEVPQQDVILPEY

Sphingosine kinase 1 = Sphingosine kinase 1 (Homo sapiens, UniProt Q9NYA1); assay: Inhibition of full-length recombinant human GST-tagged SPHK1 by Z'-LYTE assay
[2] = biological target: G protein-coupled receptor kinase 4 (Homo sapiens, UniProt P32298); assay: Inhibition of full-length recombinant human GST-tagged GRK4 expressed in baculovirus expression system by Z'-LYTE assay
[3] = biological target: Receptor tyrosine-protein kinase erbB-2 (Homo sapiens, UniProt P04626); assay: Inhibition of recombinant human His-tagged cytoplasmic ERBB2 expressed in baculovirus expression system by Z'-LYTE assay
[4] = biological target: cAMP-dependent protein kinase catalytic subunit alpha (Homo sapiens, UniProt P17612); assay: Inhibition of recombinant human His-tagged PRKACA catalytic domain expressed in Escherichia coli by Z'-LYTE assay
[5] = biological target: Cyclin-dependent kinase 7 (Homo sapiens, UniProt P50613); assay: Inhibition of full-length recombinant human His-tagged CDK7 expressed in baculovirus expression system by Adapta assay
[6] = biological target: Serine/threonine-protein kinase 26 (Homo sapiens, UniProt Q9P289); assay: Inhibition of full-length recombinant human GST-tagged MST4 expressed in baculovirus expression system by Z'-LYTE assay
[7] = biological target: Dual specificity tyrosine-phosphorylation-regulated kinase 1A (Homo sapiens, UniProt Q13627); assay: Inhibition of full-length recombinant human GST-tagged DYRK1A expressed in baculovirus expression system by Z'-LYTE assay
[8] = biological target: RAC-gamma serine/threonine-protein kinase (Homo sapiens, UniProt Q9Y243); assay: Inhibition of full-length recombinant human His-tagged AKT3 expressed in baculovirus expression system by Z'-LYTE assay
[9] = biological target: Hepatocyte growth factor receptor (Homo sapiens, UniProt P08581); assay: Inhibition of recombinant human N-terminal His-tagged cytoplasmic MET (956 to 1390 residues) expressed in baculovirus expression system by Z'-LYTE assay
[10] = biological target: Macrophage colony-stimulating factor 1 receptor (Homo sapiens, UniProt P07333); assay: Inhibition of recombinant human His-tagged cytoplasmic CSF1R expressed in baculovirus expression system by Z'-LYTE assay
[11] = biological target: Serine/threonine-protein kinase N1 (Homo sapiens, UniProt Q16512); assay: Inhibition of full-length recombinant human GST-tagged PKN1 expressed in baculovirus expression system by Z'-LYTE assay
Aurora kinase B = Aurora kinase B (Homo sapiens, UniProt Q96GD4); assay: Inhibition of full-length recombinant human His-tagged AURKB expressed in baculovirus expression system by LanthaScreen assay
[12] = biological target: Tyrosine-protein kinase JAK1 (Homo sapiens, UniProt P23458); assay: Inhibition of recombinant human GST-tagged cytoplasmic JAK1 (866 to 1154 residues) catalytic domain expressed in baculovirus expression system by Z'-LYTE assay
[13] = biological target: Mitogen-activated protein kinase 9 (Homo sapiens, UniProt P45984); assay: Inhibition of full-length recombinant human His-tagged MAPK9 expressed in baculovirus expression system by Z'-LYTE assay
[14] = biological target: Serine/threonine-protein kinase pim-1 (Homo sapiens, UniProt P11309); assay: Inhibition of full-length recombinant human His-tagged PIM1 expressed in baculovirus expression system by Z'-LYTE assay
Chain of Serine/threonine-protein kinase pim-1 (P11309 whole entry): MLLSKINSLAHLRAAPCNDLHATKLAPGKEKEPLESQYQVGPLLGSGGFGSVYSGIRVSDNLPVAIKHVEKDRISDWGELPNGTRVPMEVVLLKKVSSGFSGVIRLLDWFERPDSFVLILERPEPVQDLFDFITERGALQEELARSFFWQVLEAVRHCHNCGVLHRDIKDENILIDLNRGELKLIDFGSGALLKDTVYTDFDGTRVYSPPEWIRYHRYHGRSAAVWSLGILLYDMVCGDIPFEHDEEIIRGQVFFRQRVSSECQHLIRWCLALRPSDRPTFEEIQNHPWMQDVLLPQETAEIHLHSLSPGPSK

Chain of Serine/threonine-protein kinase N1 (Q16512 whole entry): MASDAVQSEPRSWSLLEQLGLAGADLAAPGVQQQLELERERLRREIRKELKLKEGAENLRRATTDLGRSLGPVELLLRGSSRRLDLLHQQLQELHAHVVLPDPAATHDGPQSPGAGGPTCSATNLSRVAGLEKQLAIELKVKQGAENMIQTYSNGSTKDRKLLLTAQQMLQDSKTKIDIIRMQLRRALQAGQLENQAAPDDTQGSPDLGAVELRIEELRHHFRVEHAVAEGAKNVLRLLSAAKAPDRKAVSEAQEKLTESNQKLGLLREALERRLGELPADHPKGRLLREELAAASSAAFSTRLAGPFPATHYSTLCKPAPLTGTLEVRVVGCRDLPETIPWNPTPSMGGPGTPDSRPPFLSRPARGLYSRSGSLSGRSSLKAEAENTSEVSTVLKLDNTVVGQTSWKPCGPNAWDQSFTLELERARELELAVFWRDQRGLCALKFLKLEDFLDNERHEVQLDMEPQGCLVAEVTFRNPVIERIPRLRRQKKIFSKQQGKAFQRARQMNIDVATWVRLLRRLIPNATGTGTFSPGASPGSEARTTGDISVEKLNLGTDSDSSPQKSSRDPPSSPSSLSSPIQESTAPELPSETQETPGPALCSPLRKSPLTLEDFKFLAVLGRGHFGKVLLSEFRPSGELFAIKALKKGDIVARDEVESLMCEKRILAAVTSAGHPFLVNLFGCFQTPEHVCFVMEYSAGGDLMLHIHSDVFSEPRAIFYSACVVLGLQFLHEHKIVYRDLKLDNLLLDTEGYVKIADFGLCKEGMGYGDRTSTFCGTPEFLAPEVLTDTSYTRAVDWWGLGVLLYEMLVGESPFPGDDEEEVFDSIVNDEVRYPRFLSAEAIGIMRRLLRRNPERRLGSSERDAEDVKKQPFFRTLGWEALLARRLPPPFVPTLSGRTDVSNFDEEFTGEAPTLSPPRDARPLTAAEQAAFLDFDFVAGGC
Chain of Hepatocyte growth factor receptor (P08581 whole entry, the tested form may be a part): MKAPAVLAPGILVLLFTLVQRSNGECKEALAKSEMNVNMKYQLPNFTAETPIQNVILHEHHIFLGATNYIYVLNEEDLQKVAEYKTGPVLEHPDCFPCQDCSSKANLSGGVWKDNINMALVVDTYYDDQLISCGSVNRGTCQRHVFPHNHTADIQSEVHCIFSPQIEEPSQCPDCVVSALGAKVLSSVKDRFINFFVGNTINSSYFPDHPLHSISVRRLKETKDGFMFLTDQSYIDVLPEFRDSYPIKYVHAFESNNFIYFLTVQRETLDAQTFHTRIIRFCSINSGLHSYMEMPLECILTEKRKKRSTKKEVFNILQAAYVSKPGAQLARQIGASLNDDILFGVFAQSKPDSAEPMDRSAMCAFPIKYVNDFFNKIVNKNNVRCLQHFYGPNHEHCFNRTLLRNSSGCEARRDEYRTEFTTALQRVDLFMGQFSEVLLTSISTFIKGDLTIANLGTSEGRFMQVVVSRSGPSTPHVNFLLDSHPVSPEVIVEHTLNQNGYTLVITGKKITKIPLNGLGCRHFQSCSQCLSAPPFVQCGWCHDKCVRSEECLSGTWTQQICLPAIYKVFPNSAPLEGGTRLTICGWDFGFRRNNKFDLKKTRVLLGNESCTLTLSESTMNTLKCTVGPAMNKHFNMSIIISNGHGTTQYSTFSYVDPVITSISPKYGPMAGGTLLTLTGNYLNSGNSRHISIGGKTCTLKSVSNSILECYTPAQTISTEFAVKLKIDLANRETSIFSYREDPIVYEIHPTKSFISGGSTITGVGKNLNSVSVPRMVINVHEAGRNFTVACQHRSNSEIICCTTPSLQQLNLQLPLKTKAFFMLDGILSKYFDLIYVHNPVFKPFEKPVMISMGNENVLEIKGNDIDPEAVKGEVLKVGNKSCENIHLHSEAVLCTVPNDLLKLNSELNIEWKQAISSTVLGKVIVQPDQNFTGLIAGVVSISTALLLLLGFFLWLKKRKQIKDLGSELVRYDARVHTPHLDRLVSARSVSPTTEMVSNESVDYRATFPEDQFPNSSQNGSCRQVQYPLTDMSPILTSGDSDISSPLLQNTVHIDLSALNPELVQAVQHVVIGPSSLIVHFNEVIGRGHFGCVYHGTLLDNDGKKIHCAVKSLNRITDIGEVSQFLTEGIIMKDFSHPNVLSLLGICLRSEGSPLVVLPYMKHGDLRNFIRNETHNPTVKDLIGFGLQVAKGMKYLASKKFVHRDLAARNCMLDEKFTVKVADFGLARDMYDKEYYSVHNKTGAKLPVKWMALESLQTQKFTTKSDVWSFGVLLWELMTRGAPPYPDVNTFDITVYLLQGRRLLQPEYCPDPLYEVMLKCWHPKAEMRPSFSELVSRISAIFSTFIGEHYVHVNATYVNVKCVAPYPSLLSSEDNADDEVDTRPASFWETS
Chain of Cyclin-dependent kinase 7 (P50613 whole entry): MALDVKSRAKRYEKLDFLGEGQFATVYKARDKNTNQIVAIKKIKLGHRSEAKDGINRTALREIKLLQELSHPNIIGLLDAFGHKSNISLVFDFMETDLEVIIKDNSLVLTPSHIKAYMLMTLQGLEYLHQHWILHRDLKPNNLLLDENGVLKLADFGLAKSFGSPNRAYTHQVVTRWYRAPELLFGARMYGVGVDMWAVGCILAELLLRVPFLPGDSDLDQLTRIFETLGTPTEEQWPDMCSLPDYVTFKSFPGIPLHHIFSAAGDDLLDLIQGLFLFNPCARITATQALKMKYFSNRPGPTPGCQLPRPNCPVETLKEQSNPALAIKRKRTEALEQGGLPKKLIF
Chain of Mitogen-activated protein kinase 9 (P45984 whole entry): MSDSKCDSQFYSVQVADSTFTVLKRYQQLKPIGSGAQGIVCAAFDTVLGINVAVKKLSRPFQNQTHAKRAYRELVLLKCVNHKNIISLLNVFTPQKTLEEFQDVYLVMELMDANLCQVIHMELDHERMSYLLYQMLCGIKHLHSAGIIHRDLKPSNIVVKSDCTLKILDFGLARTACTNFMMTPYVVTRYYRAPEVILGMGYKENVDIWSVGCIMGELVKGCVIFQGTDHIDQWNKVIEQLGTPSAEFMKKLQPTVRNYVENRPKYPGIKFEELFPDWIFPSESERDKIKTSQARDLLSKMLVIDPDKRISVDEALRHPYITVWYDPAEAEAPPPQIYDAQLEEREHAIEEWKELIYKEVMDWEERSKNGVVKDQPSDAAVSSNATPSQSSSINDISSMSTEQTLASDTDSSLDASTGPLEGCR
Chain of G protein-coupled receptor kinase 4 (P32298 whole entry): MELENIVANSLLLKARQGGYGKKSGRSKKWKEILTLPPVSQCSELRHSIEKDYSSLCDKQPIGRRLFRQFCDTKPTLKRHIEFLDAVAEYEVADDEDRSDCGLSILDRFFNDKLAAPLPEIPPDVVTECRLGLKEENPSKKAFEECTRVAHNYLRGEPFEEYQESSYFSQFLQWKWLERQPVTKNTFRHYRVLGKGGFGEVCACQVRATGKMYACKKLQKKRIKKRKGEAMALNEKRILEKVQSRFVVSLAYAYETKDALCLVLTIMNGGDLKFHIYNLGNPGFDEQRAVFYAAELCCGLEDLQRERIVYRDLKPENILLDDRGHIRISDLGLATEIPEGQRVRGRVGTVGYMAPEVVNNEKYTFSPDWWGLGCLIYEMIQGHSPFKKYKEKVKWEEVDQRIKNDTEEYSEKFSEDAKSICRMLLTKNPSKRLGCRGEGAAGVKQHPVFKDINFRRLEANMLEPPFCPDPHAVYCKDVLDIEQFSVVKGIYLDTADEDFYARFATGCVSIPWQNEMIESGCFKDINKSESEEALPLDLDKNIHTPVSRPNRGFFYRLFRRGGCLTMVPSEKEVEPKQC
Chain of RAC-gamma serine/threonine-protein kinase (Q9Y243 whole entry, the tested form may be a part): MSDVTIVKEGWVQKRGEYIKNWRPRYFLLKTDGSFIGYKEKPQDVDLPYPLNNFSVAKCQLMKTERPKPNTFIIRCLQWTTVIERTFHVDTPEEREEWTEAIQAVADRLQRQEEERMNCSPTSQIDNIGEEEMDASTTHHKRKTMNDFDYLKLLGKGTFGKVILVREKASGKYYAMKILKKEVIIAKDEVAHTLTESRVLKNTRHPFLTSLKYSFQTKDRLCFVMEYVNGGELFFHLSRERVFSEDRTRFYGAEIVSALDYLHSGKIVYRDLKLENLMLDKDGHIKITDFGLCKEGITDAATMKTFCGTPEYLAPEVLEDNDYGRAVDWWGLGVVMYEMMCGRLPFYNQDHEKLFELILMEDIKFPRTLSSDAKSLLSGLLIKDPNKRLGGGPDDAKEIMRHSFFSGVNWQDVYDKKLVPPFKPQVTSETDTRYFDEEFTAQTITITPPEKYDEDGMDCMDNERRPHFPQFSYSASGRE
Chain of Serine/threonine-protein kinase 26 (Q9P289 whole entry): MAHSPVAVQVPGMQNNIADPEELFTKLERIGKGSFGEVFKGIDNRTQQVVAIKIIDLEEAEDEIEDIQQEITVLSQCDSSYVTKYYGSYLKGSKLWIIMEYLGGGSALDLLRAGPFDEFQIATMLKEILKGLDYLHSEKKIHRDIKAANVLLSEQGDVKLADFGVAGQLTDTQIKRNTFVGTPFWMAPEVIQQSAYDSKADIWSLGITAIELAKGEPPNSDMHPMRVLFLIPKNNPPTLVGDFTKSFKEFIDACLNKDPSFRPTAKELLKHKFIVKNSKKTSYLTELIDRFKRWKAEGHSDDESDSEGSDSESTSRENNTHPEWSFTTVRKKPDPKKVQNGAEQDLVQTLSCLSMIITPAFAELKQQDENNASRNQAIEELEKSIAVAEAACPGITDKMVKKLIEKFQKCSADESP

Question: With `Cn1cc(-c2cnc3c(-c4csc(C(=O)N[C@@H]5CCCC[C@@H]5N)c4)cnn3c2)cn1` (racemic) as the molecule, how does the IC50 [1] read?
Answer: > 10 µM

Question: What about the IC50 (Sphingosine kinase 1) of the same molecule?
Answer: > 10 µM

Question: What about the IC50 [2] of the same molecule?
Answer: 0.26 µM

Question: And the IC50 [3]?
Answer: 1 µM

Question: What about the IC50 [4] of the same molecule?
Answer: 0.027 µM

Question: And the IC50 [5]?
Answer: 0.0041 µM

Question: What about the IC50 [6] of the same molecule?
Answer: 0.0063 µM

Question: What about the IC50 [7] of the same molecule?
Answer: 0.0032 µM

Question: And the IC50 [8]?
Answer: 0.33 µM

Question: What about the IC50 [9] of the same molecule?
Answer: 0.41 µM

Question: What about the IC50 [10] of the same molecule?
Answer: 0.0033 µM

Question: And the IC50 [11]?
Answer: 0.25 µM

Question: And the IC50 (Aurora kinase B)?
Answer: 0.028 µM

Question: And the IC50 [12]?
Answer: 0.22 µM

Question: And the IC50 [13]?
Answer: 0.64 µM

Question: What about the IC50 [14] of the same molecule?
Answer: 2.8 µM

Question: With `Cn1cc(-c2cnc3c(-c4csc(C(=O)NCC(F)(F)F)c4)cnn3c2)cn1` as the molecule, how does the IC50 [1] read?
Answer: > 100 µM

Question: And the IC50 (Sphingosine kinase 1)?
Answer: > 100 µM

Question: What about the IC50 [2] of the same molecule?
Answer: 19 µM

Question: And the IC50 [3]?
Answer: > 100 µM

Question: And the IC50 [4]?
Answer: > 100 µM

Question: What about the IC50 [5] of the same molecule?
Answer: 0.053 µM

Question: And the IC50 [6]?
Answer: 0.29 µM

Question: What about the IC50 [7] of the same molecule?
Answer: 0.011 µM

Question: What about the IC50 [8] of the same molecule?
Answer: > 100 µM

Question: What about the IC50 [9] of the same molecule?
Answer: 4 µM

Question: And the IC50 [10]?
Answer: 0.1 µM

Question: What about the IC50 [11] of the same molecule?
Answer: 18 µM

Question: What about the IC50 (Aurora kinase B) of the same molecule?
Answer: < 0.01 µM

Question: What about the IC50 [12] of the same molecule?
Answer: 4.2 µM

Question: What about the IC50 [13] of the same molecule?
Answer: 1.7 µM

Question: What about the IC50 [14] of the same molecule?
Answer: 9.9 µM

Question: Which IC50 [1] does the source give for `Cc1sc(C(=O)N[C@@H]2[C@H](N)CCCC2(F)F)cc1-c1cnn2cc(Cl)cnc12` here?
Answer: 29 µM

Question: And the IC50 (Sphingosine kinase 1)?
Answer: > 100 µM

Question: What about the IC50 [2] of the same molecule?
Answer: 0.67 µM

Question: And the IC50 [3]?
Answer: > 100 µM

Question: What about the IC50 [4] of the same molecule?
Answer: 3 µM

Question: And the IC50 [5]?
Answer: < 0.01 µM

Question: What about the IC50 [6] of the same molecule?
Answer: 0.17 µM

Question: And the IC50 [7]?
Answer: 0.13 µM

Question: What about the IC50 [8] of the same molecule?
Answer: 2.4 µM

Question: What about the IC50 [9] of the same molecule?
Answer: 8.5 µM

Question: What about the IC50 [10] of the same molecule?
Answer: 22 µM

Question: What about the IC50 [11] of the same molecule?
Answer: 17 µM

Question: What about the IC50 (Aurora kinase B) of the same molecule?
Answer: 4.6 µM

Question: And the IC50 [12]?
Answer: 4.3 µM

Question: And the IC50 [13]?
Answer: 4.4 µM

Question: What about the IC50 [14] of the same molecule?
Answer: 1.6 µM

Question: Which IC50 [1] does the source give for `O=C(NCC(F)(F)F)c1cc(-c2cnn3cc(-c4ccc(OCCN5CCCCC5)cc4)cnc23)cs1` here?
Answer: 55 µM

Question: And the IC50 (Sphingosine kinase 1)?
Answer: 32 µM

Question: What about the IC50 [2] of the same molecule?
Answer: 5.3 µM

Question: What about the IC50 [3] of the same molecule?
Answer: 35 µM

Question: And the IC50 [4]?
Answer: 15 µM

Question: What about the IC50 [5] of the same molecule?
Answer: 0.03 µM

Question: And the IC50 [6]?
Answer: 1.1 µM

Question: What about the IC50 [7] of the same molecule?
Answer: < 0.01 µM

Question: What about the IC50 [8] of the same molecule?
Answer: > 100 µM

Question: What about the IC50 [9] of the same molecule?
Answer: 1.4 µM

Question: What about the IC50 [10] of the same molecule?
Answer: 0.041 µM

Question: And the IC50 [11]?
Answer: 3.9 µM

Question: What about the IC50 (Aurora kinase B) of the same molecule?
Answer: 0.033 µM

Question: And the IC50 [12]?
Answer: 2.3 µM

Question: What about the IC50 [13] of the same molecule?
Answer: 0.85 µM

Question: And the IC50 [14]?
Answer: 0.59 µM
